Reference: ChEMBL document CHEMBL3885881, “DrugMatrix”

Organism: Rattus norvegicus
Experiment: DrugMatrix - Regimen: Daily Repeat
Type: toxicity, organism-based, Sprague-Dawley
Parameters: regimen Daily Repeat, gender Male, age 6-8 weeks
Settings: in vivo, po, route oral GAVAGE, vehicle .5 % CMC; for ABSOLUTE BASOPHIL / ABSOLUTE EOSINOPHIL / ABSOLUTE LYMPHOCYTE / ABSOLUTE MONOCYTE / ABSOLUTE SEGMENTED NEUTROPHIL / BASOPHIL / EOSINOPHIL / ERYTHROCYTE COUNT / HEMATOCRIT / HEMOGLOBIN / LEUKOCYTE COUNT / LYMPHOCYTE / MEAN CORPUSCULAR HEMOGLOBIN / MEAN CORPUSCULAR HEMOGLOBIN CONCENTRATION / MEAN CORPUSCULAR VOLUME / MONOCYTE / NEUTROPHIL / NUCLEATED RED BLOOD CELLS / PLATELET COUNT: tissue Blood; for ALANINE AMINOTRANSFERASE / ALBUMIN / ALKALINE PHOSPHATASE / ASPARTATE AMINOTRANSFERASE / BLOOD UREA NITROGEN / CARBON DIOXIDE / CHLORIDE / CHOLESTEROL / CREATINE PHOSPHOKINASE / CREATININE / GLUCOSE / LACTATE DEHYDROGENASE / LIPASE / PHOSPHORUS / POTASSIUM / SODIUM / TOTAL BILIRUBIN / TOTAL PROTEIN / URIC ACID: tissue Plasma
[1] = 0 mg/kg, 72 h, dose level Control, time 3 day
[2] = 0 mg/kg, 120 h, dose level Control, time 5 day
[3] = 10 mg/kg, 72 h, dose level Low, time 3 day

For `O=C1CN=C(c2ccccc2Cl)c2cc([N+](=O)[O-])ccc2N1` [CLONAZEPAM], the “ABSOLUTE BASOPHIL” value [1] was 0 CELLS/uL, the “ABSOLUTE EOSINOPHIL” value [1] was 0 CELLS/uL and the “ABSOLUTE LYMPHOCYTE” value [1] was 12191.17 CELLS/uL. The “ABSOLUTE MONOCYTE” value [1] was 183.17 CELLS/uL, the “ABSOLUTE SEGMENTED NEUTROPHIL” value [1] was 1192.33 CELLS/uL and the BASOPHIL [1] was 0%. For the same compound, the EOSINOPHIL [1] was 0%, the “ERYTHROCYTE COUNT” value [1] was 5.51 x10E6/uL and the HEMATOCRIT [1] was 35.45%. For the same compound, the HEMOGLOBIN [1] was 13.82 G/DL, the “LEUKOCYTE COUNT” value [1] was 13.57 x10E3/uL and the LYMPHOCYTE [1] was 89.83%. The “MEAN CORPUSCULAR HEMOGLOBIN” value [1] was 25.1 pg, the “MEAN CORPUSCULAR HEMOGLOBIN CONCENTRATION” value [1] was 38.98 G/DL and the “MEAN CORPUSCULAR VOLUME” value [1] was 64.42 fL. For the same compound, the MONOCYTE [1] was 1.33%, the NEUTROPHIL [1] was 8.83% and the “NUCLEATED RED BLOOD CELLS” value [1] was 0 /100WBC. For the same compound, the “PLATELET COUNT” value [1] was 1118.17 x10E3/uL, the “ALANINE AMINOTRANSFERASE” value [1] was 55 u/L and the ALBUMIN [1] was 4.15 G/DL. The “ALKALINE PHOSPHATASE” value [1] was 449.5 u/L, the “ASPARTATE AMINOTRANSFERASE” value [1] was 112.83 u/L and the “BLOOD UREA NITROGEN” value [1] was 17.33 mg/dL. For the same compound, the “CARBON DIOXIDE” value [1] was 29.5 mmol/L, the CHLORIDE [1] was 101 MEQ/L and the CHOLESTEROL [1] was 70 mg/dL. The “CREATINE PHOSPHOKINASE” value [1] was 1325.83 u/L, the CREATININE [1] was 0.18 mg/dL and the GLUCOSE [1] was 171.5 mg/dL. The “LACTATE DEHYDROGENASE” value [1] was 386 u/L, the LIPASE [1] was 10 u/L and the PHOSPHORUS [1] was 11.57 mg/dL. The POTASSIUM [1] was 6.21 MEQ/L, the SODIUM [1] was 141.65 MEQ/L and the “TOTAL BILIRUBIN” value [1] was 0.15 mg/dL. The “TOTAL PROTEIN” value [1] was 5.75 G/DL, the “URIC ACID” value [1] was 1.28 mg/dL and the “ABSOLUTE BASOPHIL” value [2] was 0 CELLS/uL. For the same compound, the “ABSOLUTE EOSINOPHIL” value [2] was 138.17 CELLS/uL, the “ABSOLUTE LYMPHOCYTE” value [2] was 13283.17 CELLS/uL and the “ABSOLUTE MONOCYTE” value [2] was 303.83 CELLS/uL. The “ABSOLUTE SEGMENTED NEUTROPHIL” value [2] was 1308.17 CELLS/uL, the BASOPHIL [2] was 0% and the EOSINOPHIL [2] was 1%. The “ERYTHROCYTE COUNT” value [2] was 5.32 x10E6/uL, the HEMATOCRIT [2] was 33.8% and the HEMOGLOBIN [2] was 13.63 G/DL. For the same compound, the “LEUKOCYTE COUNT” value [2] was 15.03 x10E3/uL, the LYMPHOCYTE [2] was 88.33% and the “MEAN CORPUSCULAR HEMOGLOBIN” value [2] was 25.68 pg. The “MEAN CORPUSCULAR HEMOGLOBIN CONCENTRATION” value [2] was 40.35 G/DL, the “MEAN CORPUSCULAR VOLUME” value [2] was 63.67 fL and the MONOCYTE [2] was 1.83%. The NEUTROPHIL [2] was 8.83%, the “NUCLEATED RED BLOOD CELLS” value [2] was 0 /100WBC and the “PLATELET COUNT” value [2] was 1097.5 x10E3/uL. For the same compound, the “ALANINE AMINOTRANSFERASE” value [2] was 54.5 u/L, the ALBUMIN [2] was 4.27 G/DL and the “ALKALINE PHOSPHATASE” value [2] was 337 u/L. The “ASPARTATE AMINOTRANSFERASE” value [2] was 94.67 u/L, the “BLOOD UREA NITROGEN” value [2] was 17 mg/dL and the “CARBON DIOXIDE” value [2] was 28.33 mmol/L. The CHLORIDE [2] was 101.5 MEQ/L, the CHOLESTEROL [2] was 71.33 mg/dL and the “CREATINE PHOSPHOKINASE” value [2] was 628.17 u/L. The CREATININE [2] was 0.19 mg/dL, the GLUCOSE [2] was 177.83 mg/dL and the “LACTATE DEHYDROGENASE” value [2] was 500.5 u/L. It also gave an LIPASE [2] of 9.5 u/L, a PHOSPHORUS [2] of 12.3 mg/dL and a POTASSIUM [2] of 5.63 MEQ/L. The SODIUM [2] was 143.03 MEQ/L, the “TOTAL BILIRUBIN” value [2] was 0.2 mg/dL and the “TOTAL PROTEIN” value [2] was 6.02 G/DL. The “URIC ACID” value [2] was 1.5 mg/dL, the “ABSOLUTE BASOPHIL” value [3] was 0 CELLS/uL and the “ABSOLUTE EOSINOPHIL” value [3] was 0 CELLS/uL. The “ABSOLUTE LYMPHOCYTE” value [3] was 12266.67 CELLS/uL, the “ABSOLUTE MONOCYTE” value [3] was 135.33 CELLS/uL and the “ABSOLUTE SEGMENTED NEUTROPHIL” value [3] was 664.67 CELLS/uL. For the same compound, the BASOPHIL [3] was 0%, the EOSINOPHIL [3] was 0% and the “ERYTHROCYTE COUNT” value [3] was 5.48 x10E6/uL. For the same compound, the HEMATOCRIT [3] was 35.23%, the HEMOGLOBIN [3] was 13.73 G/DL and the “LEUKOCYTE COUNT” value [3] was 13.07 x10E3/uL. The LYMPHOCYTE [3] was 93.33%, the “MEAN CORPUSCULAR HEMOGLOBIN” value [3] was 25.1 pg and the “MEAN CORPUSCULAR HEMOGLOBIN CONCENTRATION” value [3] was 38.97 G/DL. The “MEAN CORPUSCULAR VOLUME” value [3] was 64.3 fL, the MONOCYTE [3] was 1.33% and the NEUTROPHIL [3] was 5.33%. For the same compound, the “NUCLEATED RED BLOOD CELLS” value [3] was 0 /100WBC, the “PLATELET COUNT” value [3] was 1157.67 x10E3/uL and the “ALANINE AMINOTRANSFERASE” value [3] was 58.33 u/L. For the same compound, the ALBUMIN [3] was 4.1 G/DL, the “ALKALINE PHOSPHATASE” value [3] was 310 u/L and the “ASPARTATE AMINOTRANSFERASE” value [3] was 85.33 u/L. For the same compound, the “BLOOD UREA NITROGEN” value [3] was 17.67 mg/dL, the “CARBON DIOXIDE” value [3] was 27.67 mmol/L and the CHLORIDE [3] was 101.67 MEQ/L. The CHOLESTEROL [3] was 69.33 mg/dL, the “CREATINE PHOSPHOKINASE” value [3] was 333.33 u/L and the CREATININE [3] was 0.16 mg/dL. The GLUCOSE [3] was 163 mg/dL, the “LACTATE DEHYDROGENASE” value [3] was 104.33 u/L and the LIPASE [3] was 10 u/L. For the same compound, the PHOSPHORUS [3] was 11.3 mg/dL, the POTASSIUM [3] was 6.13 MEQ/L and the SODIUM [3] was 142.3 MEQ/L. For the same compound, the “TOTAL BILIRUBIN” value [3] was 0.1 mg/dL, the “TOTAL PROTEIN” value [3] was 5.6 G/DL and the “URIC ACID” value [3] was 1.73 mg/dL.
